Results reported in paper PMC7591920, “A protein tertiary structure mimetic modulator of the Hippo signalling pathway” (Nature Communications, 2020).
Bridge positions count the residues as written; N and C are the ends. Square brackets hold non-standard residues; d marks the D form. Peptide text beside a SMILES is read from it. AEEA = NCCOCCOCC(=O)O

How the values were obtained:
[1] = Circular dichroism, calculated helicity; assay type: physicochemical; conditions: 10 mM sodium phosphate pH 7.4, 75 to 10 µM peptide, CDNN software PEPFIT mode, unbound peptide
Procedure: The spectra were obtained using a Jasco J-715 and a cuvette 0.1 mm. Represented CD spectra are an average of five measurements done between λ = 190 and 300 nm with a continuous scan mode, 50 nm min^−1 scan speed and data point every 1 nm. The α-helicity was calculated using CDNN software using the PEPFIT mode[42].

[2] = system: rat heart cells; assay: Cell toxicity assessment on rat heart cells in culture; conditions: c(peptide) = 10 µM
Procedure: whole heart cells monitored by fluorescence microscopy after 90 minutes treatments (scale bar: 25 µm), number of […]
4E as well as control compounds (SB203580, CHIR99021) on rat heart cells in culture (c(peptide) = 10 µM). Number of independent biological replicates: n = 6, error bars = SEM. […]
cytometry analysis of live cells after 90 min incubation at 5 µM: Representative histogram plot, (-) DMSO control). Source data are provided as a Source Data file.
(§1) (1 picture or pasted object on this page, not shown here)

[3] = system: RKO cells; assay: Sub-cellular (cytoplasmic, nuclear) peptide concentration in RKO cells by UPLC-MS; conditions: for Sub-cellular drug content, Cytoplasm, Measured concentration / Sub-cellular drug content, Cytoplasm, nMol / Sub-cellular drug content, Nuclear, Measured concentration / Sub-cellular drug content, Nuclear, nMol / Sub-cellular drug content, Cytoplasm, pMol.mg-1 / Sub-cellular drug content, Nuclear, pMol.mg-1 / Detection in cytoplasmic and nuclear fractions / Sub-cellular drug content, Cytoplasm / Sub-cellular drug content, Nuclear: fractionation; for Sub-cellular drug content, Cytoplasm, Measured concentration / Sub-cellular drug content, Cytoplasm, nMol / Sub-cellular drug content, Nuclear, Measured concentration / Sub-cellular drug content, Nuclear, nMol / Sub-cellular drug content, Cytoplasm, pMol.mg-1 / Sub-cellular drug content, Nuclear, pMol.mg-1 / Cytoplasmic concentration of peptide / Nuclear concentration of peptide / Cytoplasmic concentration, raw data / Nuclear concentration, raw data / Detection in cytoplasmic and nuclear fractions / Sub-cellular drug content, Cytoplasm / Sub-cellular drug content, Nuclear: UPLC-MS; for Sub-cellular drug content, Cytoplasm, Measured concentration / Sub-cellular drug content, Cytoplasm, nMol / Sub-cellular drug content, Nuclear, Measured concentration / Sub-cellular drug content, Nuclear, nMol / Sub-cellular drug content, Cytoplasm, pMol.mg-1 / Sub-cellular drug content, Nuclear, pMol.mg-1 / Sub-cellular drug content, Cytoplasm / Sub-cellular drug content, Nuclear: n = 2; for Sub-cellular drug content, Cytoplasm, pMol.mg-1 / Sub-cellular drug content, Nuclear, pMol.mg-1: per mg protein; for Cytoplasmic concentration of peptide: cytoplasmic fraction; for Nuclear concentration of peptide: nuclear fraction; for Cytoplasmic concentration, raw data / Nuclear concentration, raw data: sheet Figure 3c, 25 µM unlabelled peptide; for Detection in cytoplasmic and nuclear fractions / Intracellular concentration: unlabelled peptide 25 µM; for Detection in cytoplasmic and nuclear fractions: 90 min and 24 h; for Intracellular concentration: mass spectrometry
Procedure: Peptides were incubated in RKO cells (ATCC, #CRL-2577) as follows: Experiment 1: RKO cells were incubated in 25 µM compound for 90 min and 24 h. Experiment 2: RKO cells were incubated in 25 µM for 30 min or 72 h. Following peptide incubation, the cells were washed twice with PBS, trypsinized and pelleted. The pellets were lysed in RIPA buffer (Perkin Elmer) for total lysis, or CelLytic NuCLEAR Extraction Kit (SIGMA) for subcellular fractionation. Total protein quantification BCA (Pierce) was performed prior to MS analysis to normalize sample data. Total and fractionated cell lysates were analysed by quantitative UPLC-MS utilizing a Waters Xevo TQ-XS (WBA0259) and an Acquity UPLC system from Waters consisting of Sample Manager (M16UFL953M), Acquity PDA (F17UPD457A), Column Oven (E17CMP703G) and Binary Solvent Manager (E17BUR621G). […] Chromatograms of the samples were treated similarly, and by linear regression (1/x) an in-cell concentration was established in the re-suspended cell lysate using the Waters MassLynx TargetLynx^TM product.

[4] = Peptide stability in cell culture media with 10% FBS; conditions: 30 µM peptide, MEM + 10% FBS, 37 °C, HPLC/MS, duplicates
Procedure: A total of 30 µM of the peptide was incubated in MEM media supplemented with 10% FBS at 37 °C. At the indicated time point, 25 µL of the sample was withdrawn, mixed with an equal volume of the internal standard solution (6 µM Fmoc-Arg(Pbf)-OH), kept on ice for 15 min followed by centrifugation (16×g) at 4 °C for 5 min. The supernatant was analysed with LC-MS (UltiMate 3000 UHPLC Systems) using C18 reverse phase column (Nucleodur, 1.8 µm C18 gravity, 2 mm) and Thermo Orbitrap Velos Pro ETD. The peptide absorbance (λ = 280 nm) or the mass spectrometry peak intensity relative to that of the internal standard peak intensity was graphed. The stability experiments were performed in duplicates.

[5] = system: YAP; assay: YAP localization assay in juvenile rat cardiomyocytes; assay type: cell-based; conditions: for YAP ratio (nucleus/cytoplasm), Mean: 4 h, primary juvenile rat cardiomyocytes, DMSO mean 2.99; for YAP ratio in cardiomyocytes (nucleus/cytoplasm): fluorescence immunocytochemistry, 8 Hours, mean of n = 3
Procedure: We analysed the YAP sub-cellular distribution in cardiomyocytes by means of fluorescence intensity after immunocytochemistry. After 3 days in culture, the cardiac cells were treated and fixed 4, 8, and 24 h after treatment. […] Secondary antibodies were used to detect the primary antibodies (goat anti-mouse Alexa Fluor 568, A-11004, dilution 1:1000 and goat anti-rabbit AlexaFluor 488, A-11008, dilution 1:1000, both from Thermo Fisher Scientific) and nuclei were counterstained with DAPI (2-(4-amidinophenyl)-1H-indole-6-carboxamidine, dilution 1:1000, Roth). The samples were then imaged and analysed on an ImageXpress XL automated microscope (Molecular Devices). […] Data are depicted as means ± SEM.

[6] = target: T1, hTEAD1–VGL4 complex (Homo sapiens, UniProt P28347); assay: Competitive FP, displacement of labelled VGL4(203–256) from hTEAD1; assay type: binding
T1 construct: CDNA of hTEAD1(209–426) fused with an N-terminal GST tag; GST (N); 6x His-tag (N); 3C protease cleavage site (N); made in house; host or cells: Escherichia coli BL21 DE3 RIL(K+); tracer peptide synthetic
Procedure: Next, the ability of the peptides in our panel to inhibit the TEAD–VGL4 interaction was investigated. For this purpose, a competition pull-down experiment was performed using biotinylated VGL4(203–256) (b-1) as the bait for GST-tagged hTEAD1. b-1 was immobilized on streptavidin magnetic beads and hTEAD1 pull-down was detected using gel electrophoresis (Fig. 3d). […] To evaluate how inhibitor binding discriminates between these two binding partners, we performed a competitive binding assay based on FP.
Supplementary Figure 15│ Binding studies of hTEAD1 by fluorescence polarization. Dissociation constants were measured […]
The fluorescent cofactor (10 nM) are directly titrated with hTEAD1. After 1 hour of incubation, fluorescence polarization was measured, and a non-linear fitting was applied to the curves to determine the […]
In the competitive binding assay, first a complex with the fluorescent cofactor (10 nM) and hTEAD1 (100 nM) was formed and after 1 hour of incubation, the unlabelled peptide was titrated. After 1 hour of incubation, fluorescence polarization was measured, and a non-linear fitting was applied to the curves to determine the half maximal inhibitory concentration. (c) Competition assay […]
Mean ± SEM of triplicates were plotted for all data. Source data are provided as a Source Data file.
as §1

[7] = system: TEAD target genes; assay: qPCR analysis of TEAD target genes in cardiomyocytes from human ES cell line (H7); assay type: cell-based; conditions: c = 30 µM, t = 18 h

T1 sequence (P28347 209-426, one chain of several): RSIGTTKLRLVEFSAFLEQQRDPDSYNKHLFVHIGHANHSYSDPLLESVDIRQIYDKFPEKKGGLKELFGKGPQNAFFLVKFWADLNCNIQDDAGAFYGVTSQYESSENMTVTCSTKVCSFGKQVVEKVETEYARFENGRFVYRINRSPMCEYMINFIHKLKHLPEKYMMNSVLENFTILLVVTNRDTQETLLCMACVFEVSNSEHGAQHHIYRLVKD

## CC[C@H](C)[C@@H]1NC(=O)[C@H](CCC(N)=O)NC(=O)[C@H](CC(C)C)NC(=O)[C@H](Cc2c[nH]c3ccccc23)NC(=O)[C@H]([C@@H](C)O)NC(=O)[C@H](CC(=O)O)NC(=O)CNC(=O)[C@H](CC(C)C)NC(=O)[C@H](C)NC(=O)[C@H](CCCCN)NC(=O)[C@H](C)NC(=O)[C@H](Cc2ccccc2)NC(=O)[C@H](Cc2c[nH]cn2)NC(=O)[C@H](CC(=O)O)NC(=O)[C@@H](NC(=O)[C@@H](NC(=O)[C@H](CO)NC(C)=O)C(C)C)CCC(=O)NCCCC[C@@H](C(=O)N[C@@H](C)C(=O)N[C@@H](C)C(N)=O)NC1=O [4E] (Ac-SVEDHFAKALGDTWLQIKAA-NH2; lactam 3-18)
[1]
  Helicity (CD): 23%
[2]; raw data replicate 1
  Total cell number (% DMSO control): 98.8636 % DMSO control
[2]; raw data replicate 2
  Total cell number (% DMSO control): 123.588 % DMSO control
[2]; raw data replicate 3
  Total cell number (% DMSO control): 109.739 % DMSO control
[2]; raw data replicate 4
  Total cell number (% DMSO control): 95.1959 % DMSO control
[2]; raw data replicate 5
  Total cell number (% DMSO control): 66.1379 % DMSO control
[2]; raw data replicate 6
  Total cell number (% DMSO control): 63.0015 % DMSO control
[3]; 25 µM compound, 90 minutes
  Sub-cellular drug content, Cytoplasm, Measured concentration: < LLOQ
  Sub-cellular drug content, Cytoplasm, nMol: < LLOQ
  Sub-cellular drug content, Nuclear, Measured concentration: < LLOQ
  Sub-cellular drug content, Nuclear, nMol: < LLOQ
  Sub-cellular drug content, Cytoplasm, pMol.mg-1: < LLOQ
  Sub-cellular drug content, Nuclear, pMol.mg-1: < LLOQ
[3]; 25 µM compound, 24 hours
  Sub-cellular drug content, Cytoplasm, Measured concentration: < LLOQ
  Sub-cellular drug content, Cytoplasm, nMol: < LLOQ
  Sub-cellular drug content, Nuclear, Measured concentration: < LLOQ
  Sub-cellular drug content, Nuclear, nMol: < LLOQ
  Sub-cellular drug content, Cytoplasm, pMol.mg-1: < LLOQ
  Sub-cellular drug content, Nuclear, pMol.mg-1: < LLOQ
[3]; raw data replicate 1
  Cytoplasmic concentration of peptide: <LLOQ
  Nuclear concentration of peptide: <LLOQ
[3]; raw data replicate 2
  Cytoplasmic concentration of peptide: <LLOQ
  Nuclear concentration of peptide: <LLOQ
[3]; replicate 1
  Cytoplasmic concentration, raw data: <LLOQ
  Nuclear concentration, raw data: <LLOQ
[3]; replicate 2
  Cytoplasmic concentration, raw data: <LLOQ
  Nuclear concentration, raw data: <LLOQ
[3]
  Detection in cytoplasmic and nuclear fractions: not detected in subcellular fractions
[3]; 90 min incubation, n = 2 biological replicates
  Intracellular concentration: < LLOQ
[3]; 24 hours incubation, N = 2 biological replicates
  Intracellular concentration: < LLOQ

## CC[C@H](C)[C@@H]1NC(=O)[C@H](CCC(N)=O)NC(=O)[C@H](CC(C)C)NC(=O)[C@H](Cc2c[nH]c3ccccc23)NC(=O)[C@H]([C@@H](C)O)NC(=O)[C@H](CC(=O)O)NC(=O)CNC(=O)[C@H](CC(C)C)NC(=O)[C@H](C)NC(=O)[C@H](CCCCN)NC(=O)[C@H](C)NC(=O)[C@H](Cc2ccccc2)NC(=O)[C@H](Cc2c[nH]cn2)NC(=O)[C@H](CC(=O)O)NC(=O)[C@@H](NC(=O)[C@@H](NC(=O)[C@H](CO)NC(=O)COCCOCCNC(=O)[C@H](CCC(N)=O)NC(=O)[C@@H]2CCCN2C(=O)[C@H](CCCNC(=N)N)NC(=O)[C@H](CCCNC(=N)N)NC(=O)[C@H](CCCNC(=N)N)NC(=O)[C@H](CCC(N)=O)NC(=O)[C@H](CCCNC(=N)N)NC(=O)[C@H](CCCNC(=N)N)NC(=O)[C@H](CCCCN)NC(=O)[C@H](CCCCN)NC(=O)[C@H](CCCNC(=N)N)NC(=O)CNC(C)=O)C(C)C)CCC(=O)NCCCC[C@@H](C(=O)N[C@@H](C)C(=O)N[C@@H](C)C(N)=O)NC1=O [compound 7] (Ac-GRKKRRQRRRPQ[AEEA]SVEDHFAKALGDTWLQIKAA-NH2; lactam 16-31)
[2]; raw data replicate 1
  Total cell number (% DMSO control): 121.364 % DMSO control
[2]; raw data replicate 2
  Total cell number (% DMSO control): 169.336 % DMSO control
[2]; raw data replicate 3
  Total cell number (% DMSO control): 227.316 % DMSO control
[2]; raw data replicate 4
  Total cell number (% DMSO control): 141.087 % DMSO control
[2]; raw data replicate 5
  Total cell number (% DMSO control): 122.138 % DMSO control
[2]; raw data replicate 6
  Total cell number (% DMSO control): 106.984 % DMSO control
[4]
  peptide intact after 24 h: about 80%
[3]; 25 µM compound, 90 minutes
  Sub-cellular drug content, Cytoplasm: 0.07968 nmol
  Sub-cellular drug content, Cytoplasm, Measured concentration: 265.5865 nM
  Sub-cellular drug content, Nuclear: 0.1853 nmol
  Sub-cellular drug content, Nuclear, Measured concentration: 123.5385 ± 6.5745 nM
[3]; 25 µM compound, 24 hours
  Sub-cellular drug content, Cytoplasm: 0.04677 nmol
  Sub-cellular drug content, Cytoplasm, Measured concentration: 155.914 ± 40.331 nM
  Sub-cellular drug content, Nuclear: 0.06065 nmol
  Sub-cellular drug content, Nuclear, Measured concentration: 202.161 ± 23.082 nM
[3]; 25 µM, authors' response in peer review file
  loss of cytosolic concentration between 90 min and 24 h incubation: 47%
[3]; Cytoplasm, 25 µM compound, 90 minutes (1.5 hrs), replicate 1
  pMol/mg: 104.1 pMol/mg
[3]; Cytoplasm, 25 µM compound, 90 minutes (1.5 hrs), replicate 2
  pMol/mg: 74.3 pMol/mg
[3]; Cytoplasm, 25 µM compound, 24 hours, replicate 1
  pMol/mg: 73.3 pMol/mg
[3]; Nuclear, 25 µM compound, 90 minutes (1.5 hrs), mean of 2 replicates
  pMol/mg, Mean: 231.15 pMol/mg
[3]; Nuclear, 25 µM compound, 24 hours, replicate 1
  pMol/mg: 336.5 pMol/mg
[3]; mean of n = 2
  Cytoplasmic concentration of peptide: 89.2 pMols/mg of protein
  Nuclear concentration of peptide: 209 pMols/mg of protein
[3]
  Detection in cytoplasmic and nuclear fractions: found in both compartments
[5]; 5 µM
  YAP ratio (nucleus/cytoplasm), Mean: 3.475
[5]; 5 µM, listed as peptide 7
  YAP ratio (nucleus/cytoplasm), Mean: 3.48
[5]; 10 µM
  YAP ratio (nucleus/cytoplasm), Mean: 5.895
[5]; 10 µM, listed as peptide 7
  YAP ratio (nucleus/cytoplasm), Mean: 5.89
[5]; 5 µM of 7
  YAP ratio in cardiomyocytes (nucleus/cytoplasm): 2.607
[5]; 10 µM of 7
  YAP ratio in cardiomyocytes (nucleus/cytoplasm): 3.272
[5]; juvenile rat cardiomyocytes, 4 h treatment, vs vehicle control
  Effect on sub-cellular distribution of YAP: increased nuclear accumulation of YAP
[6]; hTEAD1
  required concentration for VGL4 competition in the homogeneous FP-based competition assay: ca. 10 µM
[6]; labelled VGL4(203–256) 10 nM + hTEAD1 100 nM pre-incubated 1 h, unlabelled peptide titrated, 1 h, triplicates, read-out: IC50, inhibition of hTEAD1–VGL4 complex
  IC50: 5.46 ± 0.253 µM
[7]; qPCR
  Effect on expression of TEAD target genes: increased levels of the cell cycle genes CYR61, CTGF, ANKRD1, and SEPINE1
[7]; target gene ANKRD1, RT-qPCR
  RQ (relative target quantity): 4.731
[7]; target gene CTGF, RT-qPCR
  RQ (relative target quantity): 1.987
[7]; target gene CYR61, RT-qPCR
  RQ (relative target quantity): 3.964
[7]; target gene SERPINE1, RT-qPCR
  RQ (relative target quantity): 3.52
